Assay results: patent US20050112033A1, “Multi-well containers, systems, and methods of using the same” (IRM, LLC, priority 2003, published 2005)

Legend:
[1] = Equilibrium dialysis plasma protein binding in a multi-well container; type: in vitro ADME; conditions: human plasma vs buffer, 37° C. with gentle shaking, LC/MS detection
Method: This example illustrates equilibrium dialysis assays that were performed in a multi-well container of the invention to measure small molecule drug binding to plasma proteins. The assays included filling one well of a pair of wells that communicated via a chamber having a membrane disposed therein with human plasma and the other well of the pair with buffer. The assay included filling multiple pairs of wells in this manner. Each of the small molecules was dispensed into different wells containing plasma. The entire multi-well container was then heated at 37° C. with gentle shaking. […] Binding percentages were determined following detection using liquid chromatography/mass spectrometry.

[2] = literature value; cited from earlier work

Compound	Human plasma binding percentage obtained in a multi-well container of the invention [1]	Plasma binding percentage stated in the literature [2]
CN(C)CCCN1c2ccccc2CCc2ccccc21 [Imipramine]	95%	95%
Cc1c(O)cccc1C(=O)N[C@@H](CSc1ccccc1)[C@H](O)CN1C[C@H]2CCCC[C@H]2C[C@H]1C(=O)NC(C)(C)C [Nelfinavir]	>99%	>98%
CC(C)NCC(O)COc1cccc2ccccc12 (stereo not shown) [Propranolol]	91%	93%
Cn1c(=O)c2[nH]cnc2n(C)c1=O [Theophylline]		56%
CCCCNC(=O)NS(=O)(=O)c1ccc(C)cc1 [Tolbutamide]		96%
COc1cc(Cc2cnc(N)nc2N)cc(OC)c1OC [Trimethoprim]	65%	44%
